Test results reported in patent US20260355080A1, “COSMETIC COMPOSITION FOR PREVENTING OR AMELIORATING SKIN DISEASES, COMPRISING MORUS ALBA-DERIVED COMPOUND AS ACTIVE INGREDIENT” (DONGGUK UNIVERSITY INDUSTRY-ACADEMIC COOPERATION FOUNDATION, priority 2022, published 2026).

Key:
Format in all cases: cell-based
[1] = MTT cytotoxicity assay in melanocytes; details: human, tested at 10, 50, and 100 μM, FIG. 1, read-out: treatment concentration up to which no cytotoxicity was shown
Method: (§1) Melanocytes used were isolated from normal adult skin tissues obtained through repeated cesarean section and circumcision. Dispase 2.4U (#295 825; Roche, Mannheim, Germany) was treated for 1 hour to separate the epidermis, and 0.05% trypsin was treated for 10 minutes to isolate melanocytes. Afterwards, the cells were suspended in Medium 254, and the bovine pituitary extract (BPE), fetal bovine serum (FBS), hydrocortisone, basic fibroblast growth factor (bFGF), bovine transferrin (BT), heparin, and phorbol 12-myristate13-acetate (PMA, Invitrogen) were added and cultured. The cells that had undergone the 3rd~5th passage culture were used in the experiment.
In order to identify cytotoxicity of the 136 candidate materials, MTT assays were performed. Melanocytes were treated with the candidate materials by concentration (10, 50, and 100 μM) for 48 hours, and the cell viability was measured to determine the concentration range at which no cytotoxicity of each candidate material is observed.

tyrosinase [2] = experiment: Western blot of tyrosinase expression in GDA overexpressing keratinocyte/melanocyte co-cultured cell model; details: 10 μM, 48 hours, P<0.05 significant, FIG. 3
Method: (§2) Keratinocytes were seeded in a culture container at 2×10^5/ml, after 24 hours, pCMV plasmids containing one of three genes [arginase 2 (ARG2, NCBI Gene ID: 384), cadherin 11 (CDH11, NCBI Gene: 1009), and guanine deaminase (GDA, NCBI Gene: 9615)] were transfected into cells using Lipofectamine 2000 to induce overexpression, and after 4 hours of culture with Dulbecco's Modified Essential Medium (DMEM) culture medium without supplements, 0.5×10^5/ml melanocytes were mixed with the keratinocyte culture medium containing supplements and co-cultured in the same culture container. After 24 hours, the keratinocyte culture medium without supplements was replaced, and after 5 hours, the normal melanocytes were treated with the 16 candidate materials for 48 hours. […]
(§3) In order to identify the skin whitening and anti-aging effects of 16 candidate materials in Example 1-2, for the skin whitening effect, each of the three types of cell models constructed in the Example 2-1 was treated with the 16 candidate materials at concentrations at which no cytotoxicity is shown in the melanocytes identified in Example 1-1 for 48 hours, and then Western blot was performed to measure the expression of tyrosinase. The experiment was repeated 4 times, and P<0.05 was determined to be significant. […] The experiment was repeated 4 times, and P<0.05 was determined to be significant.

tyrosinase [3] = experiment: Western blot of tyrosinase expression in ARG2 overexpressing keratinocyte/melanocyte co-cultured cell model; details: 10 μM, 48 hours, P<0.05 significant, FIG. 3
Method: as §2, §3

tyrosinase [4] = experiment: Western blot of tyrosinase expression in control gene overexpressing (pCMV) keratinocyte/melanocyte co-cultured cell model; details: control gene overexpressing co-cultured cell model (pCMV, of the CDH11 experiment), 10 μM, 48 hours; FIG. 3
Method: as §2, §3

tyrosinase; p16 (Ink4a) = experiment: Combined analysis of skin whitening (tyrosinase expression, co-cultured cell models) and anti-aging (p16 expression, keratinocytes) effects; details: 16 candidate materials tested, 48 hours
Method: as §2, §3

tyrosinase [5] = experiment: Western blot of intracellular tyrosinase expression in melanocytes (skin whitening effect); details: 10 μM M55 (other candidates at non-cytotoxic concentration), 48 hours, FIG. 2
Method: as §1
In order to identify the skin whitening effect of the 136 candidate materials, Western blot was performed. After treating melanocytes with the candidate material at a concentration at which no cytotoxicity was shown in the melanocytes identified in Example 1-2 for 48 hours, intracellular tyrosinase expression was measured. The experiment was repeated 4 times or more.

p16 (Ink4a) = experiment: Western blot of p16 (Ink4a) expression in keratinocytes (anti-aging effect); details: 10 μM, 48 hours, P<0.05 significant, FIG. 4
Method: Keratinocytes used were isolated from normal adult skin tissues obtained through repeated cesarean section and circumcision. The cells were dispensed into EpiLife Medium, and bovine pituitary extract (BPE), bovine insulin (BI), hydrocortisone, human epidermal growth factor (EGF), and bovine transferrin (BT) were added and cultured. The cells that had undergone the 3rd~5th passage culture were used in the experiment. The pituitary extract, bovine insulin, hydrocortisone, human epidermal growth factor, and bovine transferrin were used by purchasing from Invitrogen.
In order to identify the skin whitening and anti-aging effects of 16 candidate materials in Example 1-2, for the skin whitening effect, each of the three types of cell models constructed in the Example 2-1 was treated with the 16 candidate materials at concentrations at which no cytotoxicity is shown in the melanocytes identified in Example 1-1 for 48 hours, and then Western blot was performed to measure the expression of tyrosinase. The experiment was repeated 4 times, and P<0.05 was determined to be significant. In addition, for analysis on the anti-aging effect, the keratinocytes were treated with the above 16 candidate materials for 48 hours each, and then Western blot was performed to measure the expression of p16 (Ink4a). The experiment was repeated 4 times, and P<0.05 was determined to be significant.

tyrosinase [6] = experiment: Western blot of tyrosinase expression in CDH11 overexpressing keratinocyte/melanocyte co-cultured cell model; details: 10 μM, 48 hours, FIG. 3
Method: as §2, §3

COC(=O)C[C@@H](O)CC(=O)O [M55]
MNTC at 48 h [1]: ≥ 10 µM
tyrosinase expression compared to the control group (tyrosinase [2]): significant decrease
tyrosinase expression compared to the control group (tyrosinase [3]): significant decrease
tyrosinase expression compared to the control group (tyrosinase [4]): increased
skin whitening and anti-aging effects shown together (tyrosinase; p16 (Ink4a)): skin whitening and anti-aging effects were shown together
tyrosinase expression compared to the control group (tyrosinase [5]): significantly reduced
p16 (Ink4a) expression compared to the control group (p16 (Ink4a)): significantly reduced
tyrosinase expression compared to the control group (tyrosinase [6]): reduced
